Test results as given in patent publication US11099176B2 (priority 2015, dated 2021).
Where two headings read alike, the source gives them in different places.

Key:
Format in all cases: binding
[1] = biological target: Marinobacter sp. msLacBP6 variant W11C, Acrylodan conjugate; assay: Fluorescence titration of conjugate; conditions: λ1 473, λ2 520 nm
[2] = biological target: T1, Pseudomonas stuztzeri psLacBP11 variant W195C, SEQ ID NO: 45, Acrylodan conjugate (Stutzerimonas nitrititolerans, UniProt A0ABX9V4I2, W224C); assay: Fluorescence titration of conjugate; conditions: λ1 487, λ2 466 nm
T1 construct: Acrylodan on Cys195
T1 sequence (A0ABX9V4I2 entry or part of it W224C): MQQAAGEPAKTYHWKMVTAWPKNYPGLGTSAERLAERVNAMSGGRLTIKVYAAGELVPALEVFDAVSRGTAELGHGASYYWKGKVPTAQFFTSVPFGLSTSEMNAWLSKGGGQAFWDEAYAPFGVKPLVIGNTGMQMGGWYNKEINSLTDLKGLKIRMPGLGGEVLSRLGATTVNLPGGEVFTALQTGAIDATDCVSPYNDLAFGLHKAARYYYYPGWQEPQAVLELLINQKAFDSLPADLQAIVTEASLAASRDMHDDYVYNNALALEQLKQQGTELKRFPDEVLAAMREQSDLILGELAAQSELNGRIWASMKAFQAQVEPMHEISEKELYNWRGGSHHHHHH

[3] = biological target: T2, Pseudomonas stuztzeri psLacBP11 variant W195C, SEQ ID NO: 45, Badan conjugate (Stutzerimonas nitrititolerans, UniProt A0ABX9V4I2, W224C); set-up: key: nb: no binding
T2 construct: Badan on Cys195
T2 sequence (A0ABX9V4I2 entry or part of it W224C): as above
Method: (§1) 12-, 24-, or 48-point logarithmic titration series were prepared on a Tecan Freedom liquid-handling robot, using an in-house program, ‘TitrationPlate’, that compiles an abstract description of a multi-component titration series into machine instructions for operating the robot. Temperature-dependent fluorescence emission intensities of 20 μL aliquots, each containing 10 μM protein, were measured in 384-well microtiter plates in a LightCycler 480 II (Roche) using excitation and emission wavelengths available for this instrument that most closely matched the optical characteristics of the fluorescent conjugate. Temperatures were advanced in 1K steps. At each temperature, data was collected at 1-second intervals for 60 seconds at which point the signal had relaxed to a steady value associated with the new temperature. […] The in-house program ‘TitrationMeltPlate’ was used to convert these observations into time-independent datasets that record fluorescence as a function of temperature for each well and associate wells with their concentration of titrant and additive. Management tools were developed to maintain a database of titrations and their analyses.
(§2) Ligand- and wavelength-dependent emission intensities were recorded on a Nanodrop3300 (Thermo Scientific) at room temperature. Using the LED closest to the optimal excitation wavelength of the fluorophore (UV, 365 nm; blue, 470 nm; ‘white’, 460-550 nm).
(§3) Monochromatic emission intensities Iλ (these intensities correspond to a bandpass intensity, recorded either with a physical filter in the case of the Roche LightCycler, or by integrating in the interval λ−δ, λ+δ in the case of an emission spectrum), were fit to Iλ=^apoβλ(1−ytrue)+^satβλytrue 1 where ^apoβλ and ^satβλ are the fluorescence baselines associated with the ligand-free and ligand-bound states of the protein, respectively, and ytrue the fractional saturation of the protein (Layton and Hellinga, 2010, Biochemistry, 49, 10831-41). Baseline functions can be constant, linear, or a second-order polynomial.

[4] = biological target: T3, Rhodobacter sphaeroides rsLacBP12 variant F191C, SEQ ID NO: 46, Acrylodan conjugate (Cereibacter sphaeroides, UniProt Q3IWV8, F228C); set-up: key: nb: no binding
T3 construct: Acrylodan on Cys191
T3 sequence (Q3IWV8 entry or part of it F228C): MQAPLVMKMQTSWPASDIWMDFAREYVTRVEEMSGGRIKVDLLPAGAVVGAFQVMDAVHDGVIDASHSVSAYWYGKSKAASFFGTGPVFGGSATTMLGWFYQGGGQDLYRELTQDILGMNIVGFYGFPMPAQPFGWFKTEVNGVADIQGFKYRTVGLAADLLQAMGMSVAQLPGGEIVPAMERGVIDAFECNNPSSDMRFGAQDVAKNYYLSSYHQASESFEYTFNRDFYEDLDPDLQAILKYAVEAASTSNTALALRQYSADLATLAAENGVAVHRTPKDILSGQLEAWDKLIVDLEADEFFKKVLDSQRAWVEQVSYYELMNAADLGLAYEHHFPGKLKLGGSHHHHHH
Method: as §1, §2, §3

[5] = biological target: T4, Rhodobacter sphaeroides rsLacBP12 variant F191C, SEQ ID NO: 46, Badan conjugate (Cereibacter sphaeroides, UniProt Q3IWV8, F228C); set-up: key: nb: no binding
T4 construct: Badan on Cys191
T4 sequence (Q3IWV8 entry or part of it F228C): as above
Method: as §1, §2, §3

[6] = biological target: T5, Thermanaerovibrio acidaminovorans taLacBP14 variant W186C, SEQ ID NO: 48, Acrylodan conjugate (Thermanaerovibrio acidaminovorans, UniProt D1B6P5, C271A/C333A/W212C); set-up: key: nb: no binding
T5 construct: Acrylodan on Cys186
T5 sequence (D1B6P5 entry or part of it W212C/C271A/C333A): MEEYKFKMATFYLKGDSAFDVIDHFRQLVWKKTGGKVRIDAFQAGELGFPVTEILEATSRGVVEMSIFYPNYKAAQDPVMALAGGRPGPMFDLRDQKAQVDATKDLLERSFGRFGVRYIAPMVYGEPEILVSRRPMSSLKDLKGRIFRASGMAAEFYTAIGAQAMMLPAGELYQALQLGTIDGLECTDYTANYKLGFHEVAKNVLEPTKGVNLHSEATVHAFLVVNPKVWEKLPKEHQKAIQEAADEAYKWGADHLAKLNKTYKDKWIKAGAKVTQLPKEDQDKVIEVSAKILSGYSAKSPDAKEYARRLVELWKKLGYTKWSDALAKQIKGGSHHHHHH
Method: as §1, §2, §3

[7] = biological target: T6, Thermanaerovibrio acidaminovorans taLacBP14 variant W186C, SEQ ID NO: 48, Badan conjugate (Thermanaerovibrio acidaminovorans, UniProt D1B6P5, C271A/C333A/W212C); set-up: key: nb: no binding; conditions: λ1 515, λ2 491 nm
T6 construct: Badan on Cys186
T6 sequence (D1B6P5 entry or part of it W212C/C271A/C333A): as above
Method: as §1, §2, §3

[8] = biological target: T7, Flexistipes sinusarabici fsLacBP13 variant W188C, SEQ ID NO: 47, Acrylodan conjugate (Flexistipes sinusarabici, UniProt F8E724, W211C); assay: Fluorescence titration of conjugate
T7 construct: Acrylodan on Cys188
T7 sequence (F8E724 entry or part of it W211C): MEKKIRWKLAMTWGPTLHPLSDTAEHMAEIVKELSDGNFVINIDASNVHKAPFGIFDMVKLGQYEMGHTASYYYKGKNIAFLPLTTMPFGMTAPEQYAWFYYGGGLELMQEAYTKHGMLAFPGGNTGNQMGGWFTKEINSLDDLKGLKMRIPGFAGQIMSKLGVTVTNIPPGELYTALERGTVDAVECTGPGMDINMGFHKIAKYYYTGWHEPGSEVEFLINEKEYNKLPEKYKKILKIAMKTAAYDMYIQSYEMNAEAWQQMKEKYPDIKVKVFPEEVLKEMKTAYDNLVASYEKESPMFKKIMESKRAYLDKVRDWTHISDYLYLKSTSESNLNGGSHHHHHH

[9] = biological target: Marinobacter sp. msLacBP6 variant 187C, F68M, SEQ ID NO: 50, Acrylodan conjugate; assay: Fluorescence titration of conjugate (affinity tuning); conditions: λ1 459, λ2 516 nm
[10] = biological target: Marinobacter sp. msLacBP6 variant 187C, L70I, SEQ ID NO: 52, Acrylodan conjugate; assay: as above; conditions: λ1 452, λ2 582 nm
[11] = biological target: Marinobacter sp. msLacBP6 variant 187C, L70I, SEQ ID NO: 52, Badan conjugate; assay: as above; conditions: λ1 460, λ2 537 nm
[12] = biological target: Marinobacter sp. msLacBP6 variant 187C, L70M, SEQ ID NO: 53, Acrylodan conjugate; assay: as above; conditions: λ1 455, λ2 479 nm
[13] = biological target: Marinobacter sp. msLacBP6 variant 187C, P150S, SEQ ID NO: 55, Acrylodan conjugate; assay: as above; conditions: read-out: trueKd (lactate); monochromatic, 463 nm
[14] = biological target: Marinobacter sp. msLacBP6 variant 187C, P150S, SEQ ID NO: 55, Badan conjugate; assay: as above; conditions: read-out: trueKd (lactate); monochromatic, 528 nm
[15] = biological target: Marinobacter sp. msLacBP6 variant 187C, D220E, SEQ ID NO: 56, Acrylodan conjugate; assay: as above; conditions: λ1 483, λ2 510 nm

C[C@H](O)C(=O)O [lactate]
Kd ([1]; read-out: appKd (lactate)): 400 µM | Kd ([1]; read-out: trueKd (lactate)): 400 µM | Kd ([2]; read-out: appKd (lactate)): > 100000 µM | Kd ([2]; read-out: trueKd (lactate)): > 100000 µM | appKd (lactate) [3]: nb | trueKd (lactate) [3]: nb | appKd (lactate) [4]: nb | trueKd (lactate) [4]: nb | appKd (lactate) [5]: nb | trueKd (lactate) [5]: nb | appKd (lactate) [6]: nb | trueKd (lactate) [6]: nb | appKd (lactate) [7]: nb | trueKd (lactate) [7]: nb | Kd [8]: > 100000 µM | Kd ([8]; read-out: trueKd (lactate), λ1 482, λ2 450 nm): > 100000 µM | Kd ([9]; read-out: appKd (lactate)): 700 µM | Kd ([9]; read-out: trueKd (lactate)): 500 µM | Kd ([10]; read-out: appKd (lactate)): 400 µM | Kd ([10]; read-out: trueKd (lactate)): 300 µM | Kd ([11]; read-out: appKd (lactate)): 300 µM | Kd ([11]; read-out: trueKd (lactate)): 200 µM | Kd ([12]; read-out: appKd (lactate)): 1600 µM | Kd ([12]; read-out: trueKd (lactate)): 1200 µM | Kd [13]: 24000 µM | Kd [14]: 14400 µM | Kd ([15]; read-out: appKd (lactate)): 5100 µM | Kd ([15]; read-out: trueKd (lactate)): 4000 µM
